# Measured values from patent US8759360B2, “Purine compounds” (Eli Lilly and Company, priority 2010, dated 2014).
# Where a name gives a salt, the structure may show the parent alone. Read-outs that look alike come from different tables or passages of the source.
# Columns and labels:
# male Lewis rats = test: Monoiodoacetate (MIA) model, incapacitance testing; type: in vivo; conditions: rat, single dose
# Protocol: For all studies male Lewis rats of approximately 8 weeks of age at the time of MIA injection are used to measure pain in the MIA model. The rats are housed in groups of 2 or 3 per cage and maintained in a constant temperature and on a 12 hour light/12 hour dark cycle. Animals have free access to food and water at all times except during data collection.
# In the standard MIA model the right knees of each rat are injected with 0.3 mg MIA in 50 ul of saline and the left knees with 50 ul of saline. Pain is measured at varying times after MIA injection (not normally before 10 day post MIA injection) using incapacitance testing. This measures the difference in hind paw weight bearing between the MIA and saline injected knees, and each measurement is the average of 3 separate measurements each measured over 1 second.
# For studies with CB2 agonists rats are randomized into dose groups (n=5 or 6) and then dosed once with the compound under investigation. Dosing is staggered by 15 minutes for each rat and at a predetermined time post-dose (usually 2 hours), pain measured using incapacitance testing. Studies are routinely run with 4 groups, vehicle (1% carboxy methyl cellulose in water plus 0.25% polysorbate 80) and 3 compound groups which can be either single compounds at a single dose or the same compound at 3 doses. Results are reported as the difference in weight bearing between saline and MIA injected knees and statistical comparisons are made between vehicle treated and compound treated animals to assess the effect of compounds on knee pain in the model.
# [1] = Dose-ranging toxicity study in beagle dogs; type: in vivo, dog; conditions: both sexes, beagle, dog, 30 mg/kg single oral dose, plasma
# Protocol: (§1) One male and one female beagle dog are used to evaluate the acute toxicity after a single oral gavage dose of CB2 agonist. The dogs are housed individually and maintained in a constant temperature and on a 12 hour light/12 hour dark cycle. CB2 agonist is prepared in vehicle (1% hydroxyethylcellulose, 0.25% polysorbate 80, and 0.05% Dow Corning® Antifoam 1510-US in purified water) and administered by oral gavage at a dose volume of 2 mL/kg. Dogs are observed for mortality and clinical observations (before dosing, 2 hours postdose, in the afternoon and daily thereafter). Food consumption is assessed by daily visual assessment of food remaining. Blood is collected before dosing and 48 hours after dosing to evaluate effects on haematology and clinical chemistry parameters. Blood is collected at 0.5, 1, 2, 4, 8, and 24 hours postdose to evaluate toxicokinetic plasma drug concentrations.
# beagle dog = test: Dose-ranging toxicity study in beagle dogs; type: in vivo; conditions: single oral dose of 30 mg/kg
# Protocol: as §1
# [2] = system: Male Harlan Sprague Dawley rats; test: Chemotherapy-induced pain assay (paclitaxel, von Frey); type: in vivo, rat; conditions: for Mean paw withdrawal latencies (mean ± SE): 1 hour post-dose, n of 12
# Protocol: Male Harlan Sprague Dawley rats 150-200 grams are acclimated to the vivarium for 7 days. The animals are maintained in a constant temperature and on a 12 hour light/12 hour dark cycle, and housed in groups of 3-4 with water and food ad libitum. Twice daily dosing of compound at 10 mg/kg (oral), morphine at 5 mg/kg, and vehicle commences on Day 1 of the study, and continues through the duration of the study (Day 18). Paclitaxel at 1 mg/kg (intraperitoneal) is administered on Days 2, 4, 6, and 8, for a cumulative dose of 4 mg/kg in order to induce chemotherapy-induced peripheral neuropathy.
# Rats are placed in individual plexiglass chambers with a wire mesh platform bottom to allow access to the hindpaw. After an acclimation period of 15 minutes to 1 hour, the mid-plantar hind paws are assessed within the sciatic nerve distribution. A series of 8 von Frey hairs with logarithmically incremental stiffness (0.41, 0.70, 1.20, 2.00, 3.63, 5.50, 8.50, and 15.10 g) are applied to the hind paws. The von Frey hairs are presented perpendicular to the plantar surface with sufficient force to cause slight bending. Stimuli are presented at intervals of several seconds. A positive response is noted if the paw is sharply withdrawn or if flinching immediately upon removal of the hair is observed. On study days, behavioral endpoints are evaluated 1 hour post-dose. Score patterns are evaluated using the Dixon up-down method, and translated to a response threshold (1980, Ann Rev Pharmacol Toxicol 20:441-462). The maximum applied force is 15.10 grams. The initial behavior assessment occurs on Day 10 of the study, and subsequent measures are made on Study Days 12, 15, and 18.
# Results are expressed as mean values with standard errors of the mean (mean±SE) for an n of 12 per group. All statistical evaluations are conducted utilizing a one-way ANOVA followed by comparison to the control group by Dunnett's Method. Statistical significance is assumed when p<0.05. Statistical analyses are performed using JMP statistical analysis software (SAS Research Institute, version 6.0.2).
# hCB2 [3] = target: T1, hCB2 (Homo sapiens, UniProt P34972); test: CB2 in vitro functional assay (SPA based GTP-γ-35S binding, agonist mode); type: biochemical
# Protocol: (§2) Exemplified compounds are tested in agonist mode using a SPA based GTP-γ-^35S binding assay. All assay components are prepared in assay buffer made up of 20 mM HEPES, 100 mM NaCl, 5 mM MgCl2, (pH 7.4 at room temperature). Semi-log compound dilutions are done in assay buffer containing BSA (final 0.125%). GTP-γ^35-S binding is measured in a 96 well format using a whole membrane capture technique for the CB1 assay and modifications of an antibody capture technique previously described (DeLapp et al. J Pharmacol Exp Ther 289:946-955, 1999) for the CB2 assay. All incubations are done at room temperature.
# hCB2-Sf9 membranes and GDP (1 uM final) are added to assay buffer and homogenized. Diluted compounds and membranes are added to the assay plate and pre-incubated for 15 minutes. This is followed by addition of GTP-γ-^35S ([…] final) and another 35 minute incubation. Next a mixture containing Nonidet P40 detergent (0.2% final), anti-Gi antibody (final dilution of 1:362), and 1.25 mg anti-rabbit antibody scintillation proximity assay beads are added. The plates are then sealed, vortexed, and incubated for an additional 2 hours before centrifuging and counting as for CB1.
# To analyze data, first subtract background from all wells. Determine percent agonist efficacy by normalizing agonist/inverse agonist dose response data to a full agonist (methanandamide) response. […]
# hCB1 = target: T2, hCB1 (Homo sapiens, UniProt P21554); test: CB1 in vitro functional assay (SPA based GTP-γ-35S binding, agonist mode); type: biochemical
# T2 construct: expressed in transfected cells; host or cells: CHO cells (membranes)
# Protocol: as §2
# hCB1-CHO membranes, GDP (1 uM final), and saponin (10 ug/mL final) are added to assay buffer and homogenized. Diluted compounds, GTP-γ-^35S (500 nM final) and membranes are added to the assay plate and incubated for 30 minutes. Then 1 mg/well Wheatgerm Agglutinin SPA bead is added, and the plates are sealed, vortexed, and incubated for an additional hour. Plates are then centrifuged at 700×g for 10 minutes and counted for 1 minute per well using a scintillation counter.
# To analyze data, first subtract background from all wells. Determine percent agonist efficacy by normalizing agonist/inverse agonist dose response data to a full agonist (methanandamide) response. Analyze the data using a 4-parameter logistic reduced fit with Activity Base and XLFit3.
# hCB2 [4] = target: T1, hCB2; test: Displacement of 3H-CP55940 from human CB2 receptors; type: binding; set-up: expressed in transfected cells; conditions: 3H-CP55940 displacement
# Protocol: (§3) The methods of Felder et al. (Mol. Pharmaocol. 48:443-450, 1995) were utilized with minor modifications. Specifically, membrane homogenates from cells stably or transiently expressing the human or rat CB2 receptor were washed by centrifugation and diluted into a 50 mM Tris HCl (pH 7.4), 5 mM MgCl2, 2.5 mM EDTA, and 0.1% BSA buffer. Specific binding of 3H-CP55940 was defined with 1 μM CP55940. The ability of compounds to displace specific 3H-CP55940 binding was tested over a range of concentrations in the Tris, MgCl2, EDTA, BSA buffer in the presence of 1% dimethyl sulfoxide by incubating at room temperature for 90 minutes in a volume of 300 μl. Unifilter 96-well microplates pretreated with 0.5% polyvinylpyrrolidone, 0.1% polysorbate 20 in water were washed three times with cold Tris buffer. The reaction mixture was then transferred to the filter plate immediately before terminating the incubation by rapid filtration and three 200 μl washes with cold Tris buffer. After the filter plates dried, microscint 20 was added to each well, the plate sealed and counted for determination of disintegrations per minute. The displacement curves were graphed and the resulting Ki values determined utilizing Graphpad Prism.
# rat CB2 receptor = target: T3, rat CB2 receptor (Rattus norvegicus, UniProt Q9QZN9); test: Displacement of 3H-CP55940 from rat CB2 receptors; type: binding
# T3 construct: expressed in transfected cells
# T3 sequence (Q9QZN9 1-360): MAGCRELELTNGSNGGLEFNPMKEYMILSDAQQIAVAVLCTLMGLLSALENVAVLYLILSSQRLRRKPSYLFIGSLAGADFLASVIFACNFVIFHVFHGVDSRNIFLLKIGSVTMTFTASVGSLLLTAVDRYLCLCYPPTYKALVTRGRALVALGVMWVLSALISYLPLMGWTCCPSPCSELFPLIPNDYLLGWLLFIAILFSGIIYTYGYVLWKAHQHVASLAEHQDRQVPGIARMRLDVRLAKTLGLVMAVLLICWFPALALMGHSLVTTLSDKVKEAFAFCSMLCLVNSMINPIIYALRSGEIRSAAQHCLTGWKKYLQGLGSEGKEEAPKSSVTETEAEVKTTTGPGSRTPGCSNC
# Protocol: as §3
# T1 sequence (P34972 whole entry): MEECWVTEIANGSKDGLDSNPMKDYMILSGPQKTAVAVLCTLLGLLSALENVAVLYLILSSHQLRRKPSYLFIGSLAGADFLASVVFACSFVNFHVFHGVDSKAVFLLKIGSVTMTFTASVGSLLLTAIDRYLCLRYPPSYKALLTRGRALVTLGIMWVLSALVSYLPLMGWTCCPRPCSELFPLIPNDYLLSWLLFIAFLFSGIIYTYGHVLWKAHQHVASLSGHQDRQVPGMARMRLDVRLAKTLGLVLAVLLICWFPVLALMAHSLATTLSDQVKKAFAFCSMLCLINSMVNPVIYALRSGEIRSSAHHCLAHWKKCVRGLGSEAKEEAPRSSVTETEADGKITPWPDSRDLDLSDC
# T2 sequence (P21554 whole entry): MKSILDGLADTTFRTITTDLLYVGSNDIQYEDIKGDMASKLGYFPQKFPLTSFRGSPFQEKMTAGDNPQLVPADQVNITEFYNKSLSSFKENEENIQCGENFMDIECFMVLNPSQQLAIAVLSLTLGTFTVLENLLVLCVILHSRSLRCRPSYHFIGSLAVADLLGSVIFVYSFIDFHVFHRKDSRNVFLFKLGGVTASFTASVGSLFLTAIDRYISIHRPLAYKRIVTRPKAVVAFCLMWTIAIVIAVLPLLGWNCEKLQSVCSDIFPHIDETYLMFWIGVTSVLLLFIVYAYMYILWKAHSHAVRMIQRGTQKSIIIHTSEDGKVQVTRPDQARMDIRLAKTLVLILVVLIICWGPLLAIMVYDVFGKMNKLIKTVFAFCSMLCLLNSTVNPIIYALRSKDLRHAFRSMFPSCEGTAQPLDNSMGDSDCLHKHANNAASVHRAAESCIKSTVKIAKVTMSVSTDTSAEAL
smiles,measurement,setting,value
"Cc1nc(N2CCN(C)CC2)c2nc(-c3ccccc3Cl)n(C(C)CO)c2n1.Cl (single isomer, unassigned; isomer 1) [Example 18, 2-[8-(2-Chloro-phenyl)-2-methyl-6-(4-methyl-piperazin-1-yl)-purin-9-yl]-propan-1-ol hydrochloride, Isomer 1]",pain versus vehicle (difference in hind paw weight bearing),male Lewis rats; dose of 0.3 mg/kg,reduce pain versus vehicle
"Cc1nc(N2CCN(C)CC2)c2nc(-c3ccccc3Cl)n(C(C)CO)c2n1.Cl (single isomer, unassigned; isomer 2) [Example 19, 2-[8-(2-Chloro-phenyl)-2-methyl-6-(4-methyl-piperazin-1-yl)-purin-9-yl]-propan-1-ol hydrochloride, Isomer 2]",AUC(0-t),[1]; read-out: mean Area-Under the Curve from 0-24 hours (AUC0-24hr),44500 ng·h/mL
same,Cmax,[1]; read-out: mean maximum concentration (Cmax),7540 ng/mL
same,faeces,beagle dog; female dog,Decreased faeces
same,food consumption,beagle dog; female dog,minimal decreased food consumption
same,"decrease in reticulocyte count, change relative to pre-dose","beagle dog; female dog, 48 hours after dosing",39%
same,Post-dose clinical observations,beagle dog; one male and one female dog,limited to vomiting and dilated pupils
same,pain versus vehicle (difference in hind paw weight bearing),male Lewis rats; dose of 0.3 mg/kg,reduce pain versus vehicle
same,pain versus vehicle (difference in hind paw weight bearing),male Lewis rats; dose of 1 mg/kg,reduce pain versus vehicle
same,allodynia compared to both vehicle and morphine-treated animals,"[2]; 10 mg/kg oral twice daily, over the duration of the study (Day 18)",developed less allodynia
same,Mean paw withdrawal latencies (mean ± SE),"[2]; Day 10, 10 mg/kg oral twice daily",11.25 ± 1.31
same,Mean paw withdrawal latencies (mean ± SE),"[2]; Day 12, 10 mg/kg oral twice daily",7.38 ± 0.95
same,Mean paw withdrawal latencies (mean ± SE),"[2]; Day 15, 10 mg/kg oral twice daily",7.90 ± 1.04
same,Mean paw withdrawal latencies (mean ± SE),"[2]; Day 18, 10 mg/kg oral twice daily",6.02 ± 0.72
same,EC50,"hCB2 [3]; agonist mode, hCB2-Sf9 membranes, read-out: relative EC50 value for CB2",22.4 nM
same,EC50,"hCB1; agonist mode, hCB1-CHO membranes, read-out: relative EC50 value for CB1",> 100000 nM
"COCCCn1c(-c2ccccc2Cl)nc2c(N3CCN(CCF)CC3)nc(C)nc21 [Example 6, 8-(2-Chlorophenyl)-6-[4-(2-fluoroethyl)piperazin-1-yl]-9-(3-methoxypropyl)-2-methyl-purine hydrochloride]",EC50,hCB2 [3],2.7 nM
same,EC50,hCB1,> 100000 nM
"COC(C)(C)Cn1c(-c2ccccc2Cl)nc2c(N3CCN(C(C)=O)CC3)nc(C)nc21 [Example 8, 1-[4-[8-(2-Chlorophenyl)-9-(2-methoxy-2-methyl-propyl)-2-methyl-purin-6-yl]piperazin-1-yl]ethanone]",Ki,hCB2 [4],142 nM
same,Ki,rat CB2 receptor,37.5 nM
"CC(=O)N1CCN(c2nc(C)nc3c2nc(-c2ccccc2Cl)n3CC(C)(C)O)CC1 [Example 13, 1-[4-[8-(2-Chlorophenyl)-9-(2-hydroxy-2-methyl-propyl)-2-methyl-purin-6-yl]piperazin-1-yl]ethanone hydrochloride]",Ki,hCB2 [4],65.2 nM
same,Ki,"rat CB2 receptor; 3H-CP55940 displacement, rat CB2, read-out: rat receptor Ki value",215 nM
"CN1CC[C@]23c4c5ccc(O)c4O[C@H]2[C@@H](O)C=C[C@H]3[C@H]1C5 [Morphine, reference compound]",Mean paw withdrawal latencies (mean ± SE),"[2]; Day 10, 5 mg/kg twice daily",8.16 ± 1.22
same,Mean paw withdrawal latencies (mean ± SE),"[2]; Day 12, 5 mg/kg twice daily",3.67 ± 0.30
same,Mean paw withdrawal latencies (mean ± SE),"[2]; Day 15, 5 mg/kg twice daily",3.84 ± 0.45
same,Mean paw withdrawal latencies (mean ± SE),"[2]; Day 18, 5 mg/kg twice daily",3.46 ± 0.42
